# Experimental data from patent US20240374626A1, “METHODS OF ENHANCING MILK PRODUCTION IN LACTATING MAMMALIAN SUBJECTS” (priority 2023, published 2024).
# Assays:
# HC11 cells = assay: Visualization of FACS-purified HC11 subpopulations sorted on DNA content (nuclei number); type: cell-based, mouse; conditions: HC11, doxorubicin 50 nM, FACS-purified population
# Description: (§1) […] Drugs were maintained through the differentiation process and added with every change of media.
# Mammary gland CK8+ epithelial cells or HC11 were sorted based on DNA content using BD FACS Aria II Cell Sorter. After sorting, cells were stained in suspension using Phalloidin-iFluor 488 Reagent (Abcam, ab176753) for 30 min at room temperature in darkness. Cells were spined down onto microscopy slides (Fisher, 12-550-15) using Cytospin 2 (Shandon, 599X52) at 500 rpm for 3 min. Cells were mounted using fluoromount-G (Southern Biotech, 0100-01) and visualized using Zeiss Axio Imager Microscope.
# γH2AX = γH2AX immunofluorescence on HC11 cells; type: cell-based, mouse; conditions: HC11, doxorubicin 50 nM, 24 h post-treatment
# Description: as §1
# HC11 cells were fixed using ice-cold MeOH for 10 min. After washing with 1×PBS, cells were incubated for 1 h at room temperature with primary antibodies [anti-γH2AX (SCBT, sc-517348), anti-pATR (Genetex, GTX128145), anti-PLIN2 (generously provided by Jim McManaman)] in a humid incubation chamber. After incubation, cells were washed three times using 1×PBS and incubated for 1 h at room temperature in darkness using corresponding Alexa Fluor AffiniPure secondary antibodies (Jackson ImmunoResearch) and Phalloidin-iFluor 488 Reagent (Abcam, ab176753) when indicated. Cells were washed three times using 1×PBS and incubated with Hoechst 33342 (AnaSpec, AS-83218) for 10 min. Cells were mounted using fluoromount-G (Southern Biotech, 0100-01) and visualized using Zeiss Axio Imager Microscope. Integrated density of PLIN2, nuclear γH2AX and nuclear pATR was quantify using ImageJ.
# MG alveoli = assay: Contralateral intraductal injection: milk staining (IHC) integrated density per alveolus; type: in vivo, mouse; conditions: Mk-1775 IDI at PD16.5 vs contralateral DMSO, LD5 MGs
# Description: Nulliparous analysis was performed using adult (10-12-week-old) female mice. For timed pregnancies and lactation analysis, CD-1 pregnant adult females were obtained from Charles Rivers. Embryos were examined at the time of mammary gland harvesting to confirm pregnancy state. […] Plugged mice were considered to be PD0.5 on the day of the observed plug. All females used in this study were age matched.
# Mice were anesthetized with isoflurane (VetOne, 501017) Prior to intraductal injections, hair was removed from around the nipples using Nair hair remover. Injections into the duct of the nipple were performed with 33 G needles (Hamilton, 7803-05) and a volume of 40 μl per gland. […]
# Mammary gland tissue was fixed in 10% neutral buffered formalin (EMD Millipore, MR0458682) at 4° C. overnight. […] Incubation with secondary antibodies [(donkey anti-Rat 647 (Thermo-Invitrogen; A48272) and donkey anti-Rabbit 488 (Thermo-Invitrogen; A32790)] was performed for 2 h at room temperature. Sections were washed with 0.3% triton in PBS for 30 min (×3) at room temperature and mounted using flouromount-G (Southern Biotech, 0100-01). Image acquisition was performed using Zeiss Axio Imager Microscope. Macros were generated to quantify lumen milk integrated density per alveolus using Image J.
smiles,measurement,setting,value
COc1cccc2c1C(=O)c1c(O)c3c(c(O)c1C2=O)C[C@@](O)(C(=O)CO)C[C@@H]3O[C@H]1C[C@H](N)[C@H](O)[C@H](C)O1 [doxorubicin],nuclei number of polyploid cells generated,HC11 cells,generated both mono- and binucleated polyploid cells
same,γH2AX,γH2AX,increase
C=CCn1c(=O)c2cnc(Nc3ccc(N4CCN(C)CC4)cc3)nc2n1-c1cccc(C(C)(C)O)n1 [Mk-1775],"decrease in milk production (IHC, milk integrated density per alveolus)",MG alveoli,21%
